Test [1] deals with von Hippel-Lindau disease tumor suppressor/Receptor-type tyrosine-protein kinase FLT3 (Homo sapiens, UniProt P36888+P40337). The test is described as follows: Protac activity at VHL/FLT3-ITD (unknown origin) assessed as induction of FLT3 degradation.
Test [2] concerns the target T1, Protein cereblon/Cyclin-dependent kinase 2 (Homo sapiens, UniProt P24941+Q96SW2). The test is described as follows: Protac activity at CRBN/CDK2 in human HL-60 cells assessed as induction of CDK2 degradation by Western blot analysis. In kind it is cell-based. For orientation: In western blotting, separated proteins are transferred to a membrane and probed.
Test [3] concerns the target T1, Protein cereblon/Cyclin-dependent kinase 2. Put plainly: Protac activity at CRBN/CDK2 in human HL-60 cells assessed as induction of CDK2 degradation by Western blot analysis relative to control. In kind it is cell-based.
The test system of test [4] is HL-60. Put plainly: Antiproliferative activity against human HL-60 cells measured after 1 to 3 days by CCK-8 assay. In kind it is functional, cell-based. Background: Formazan colour is commonly taken as a measure of viable cells.
In test [5] the target is Protein cereblon/Cyclin-dependent kinase 6 (Homo sapiens, UniProt Q00534+Q96SW2). The test is described as follows: Protac activity at CRBN/CDK6 in human MDA-MB-231 cells assessed as induction of CDK6 degradation measured after 18 hrs by Western blot analysis. In kind it is cell-based.
Protein cereblon/Cyclin-dependent kinase 6, sequence (Q00534 whole entry): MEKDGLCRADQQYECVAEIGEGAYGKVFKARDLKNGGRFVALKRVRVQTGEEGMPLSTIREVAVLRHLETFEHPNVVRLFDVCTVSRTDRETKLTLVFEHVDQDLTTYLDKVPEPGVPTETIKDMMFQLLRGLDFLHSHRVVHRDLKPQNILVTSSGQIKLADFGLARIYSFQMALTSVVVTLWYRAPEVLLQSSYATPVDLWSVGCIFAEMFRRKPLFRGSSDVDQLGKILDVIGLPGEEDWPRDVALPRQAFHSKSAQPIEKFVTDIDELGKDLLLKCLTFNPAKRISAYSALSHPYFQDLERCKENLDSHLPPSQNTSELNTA
Protein cereblon/Cyclin-dependent kinase 6, sequence (Q96SW2 whole entry): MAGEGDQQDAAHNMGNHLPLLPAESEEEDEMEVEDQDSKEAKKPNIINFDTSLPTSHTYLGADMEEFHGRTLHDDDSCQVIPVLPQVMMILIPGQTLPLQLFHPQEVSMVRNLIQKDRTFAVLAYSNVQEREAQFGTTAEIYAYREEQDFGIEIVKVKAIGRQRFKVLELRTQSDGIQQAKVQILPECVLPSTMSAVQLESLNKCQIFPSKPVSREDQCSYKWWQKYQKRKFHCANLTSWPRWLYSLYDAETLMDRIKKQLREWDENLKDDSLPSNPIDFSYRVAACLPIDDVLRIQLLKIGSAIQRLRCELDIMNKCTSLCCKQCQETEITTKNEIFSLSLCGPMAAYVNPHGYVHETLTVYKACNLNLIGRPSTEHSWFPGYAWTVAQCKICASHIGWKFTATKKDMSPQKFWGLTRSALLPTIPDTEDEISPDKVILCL
Test [6] concerns the target Protein cereblon/Cyclin-dependent kinase 4 (Homo sapiens, UniProt P11802+Q96SW2). Put plainly: Protac activity at CRBN/CDK4 in human MDA-MB-231 cells assessed as induction of CDK4 degradation measured after 18 hrs by Western blot analysis. In kind it is cell-based.
Test [7] relates to HL-60. The test is described as follows: Induction of pro-differentiation of human HL-60 cells assessed as CD11b expression at 500 nM measured after 5 days by immunostaining-based flow cytometry (reference value: 10.08 to 10.33%). To be noted: time 5 day. In kind it is functional. On the technique in general: In flow cytometry, cells or beads pass a laser one at a time.
Test [8] concerns the target T1, Protein cereblon/Cyclin-dependent kinase 2. Put plainly: Protac activity at CRBN/CDK2 in human Kasumi 1 cells assessed as induction of CDK2 degradation measured after 48 hrs by Western blot analysis. In kind it is cell-based.
The subject of test [9] is HL-60. The test is described as follows: Induction of pro-differentiation of human HL-60 cells assessed as CD11b expression at 500 nM measured after 3 days by immunostaining-based flow cytometry (reference value: 8.32 to 10.55%). In kind it is functional. As to conditions: time 3 day.
Test [10] has as its target T1, Protein cereblon/Cyclin-dependent kinase 2. The test is described as follows: Protac activity at CRBN/CDK2 in human OVCAR-8 cells assessed as induction of CDK2 degradation measured after 6 hrs by Western blot analysis. In kind it is cell-based.
For test [11], the target named is Protein cereblon/Cyclin-dependent kinase 9 (Homo sapiens, UniProt P50750+Q96SW2). The test is described as follows: Protac activity at CRBN/CDK9 in human OVCAR-8 cells assessed as induction of CDK9 degradation measured after 6 hrs by Western blot analysis. In kind it is cell-based.
Protein cereblon/Cyclin-dependent kinase 9, sequence (P50750 whole entry): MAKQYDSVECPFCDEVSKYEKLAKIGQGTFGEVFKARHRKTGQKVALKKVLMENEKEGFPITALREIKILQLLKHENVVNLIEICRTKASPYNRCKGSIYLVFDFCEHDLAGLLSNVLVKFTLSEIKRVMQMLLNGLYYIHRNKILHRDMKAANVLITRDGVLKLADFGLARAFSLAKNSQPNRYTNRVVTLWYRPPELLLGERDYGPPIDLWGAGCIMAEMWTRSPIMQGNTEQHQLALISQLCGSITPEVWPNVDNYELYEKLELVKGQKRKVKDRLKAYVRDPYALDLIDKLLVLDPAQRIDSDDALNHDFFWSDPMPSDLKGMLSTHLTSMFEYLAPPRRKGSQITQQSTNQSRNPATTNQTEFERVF
Protein cereblon/Cyclin-dependent kinase 9, sequence (Q96SW2 whole entry): as the sequence (Q96SW2 whole entry) above

Some results are limits rather than exact numbers.

As a reminder, the DC50 is the concentration at which degradation of the target reaches its halfway point. As a reminder, the Emax is the size of the effect at its maximum, as opposed to the concentration needed. The term IC50 denotes the concentration that gives 50% inhibition. High values mean lower potency, low ones higher potency.

von Hippel-Lindau disease tumor suppressor/Receptor-type tyrosine-protein kinase FLT3, sequence (P36888 whole entry, looked up, stated change not applied): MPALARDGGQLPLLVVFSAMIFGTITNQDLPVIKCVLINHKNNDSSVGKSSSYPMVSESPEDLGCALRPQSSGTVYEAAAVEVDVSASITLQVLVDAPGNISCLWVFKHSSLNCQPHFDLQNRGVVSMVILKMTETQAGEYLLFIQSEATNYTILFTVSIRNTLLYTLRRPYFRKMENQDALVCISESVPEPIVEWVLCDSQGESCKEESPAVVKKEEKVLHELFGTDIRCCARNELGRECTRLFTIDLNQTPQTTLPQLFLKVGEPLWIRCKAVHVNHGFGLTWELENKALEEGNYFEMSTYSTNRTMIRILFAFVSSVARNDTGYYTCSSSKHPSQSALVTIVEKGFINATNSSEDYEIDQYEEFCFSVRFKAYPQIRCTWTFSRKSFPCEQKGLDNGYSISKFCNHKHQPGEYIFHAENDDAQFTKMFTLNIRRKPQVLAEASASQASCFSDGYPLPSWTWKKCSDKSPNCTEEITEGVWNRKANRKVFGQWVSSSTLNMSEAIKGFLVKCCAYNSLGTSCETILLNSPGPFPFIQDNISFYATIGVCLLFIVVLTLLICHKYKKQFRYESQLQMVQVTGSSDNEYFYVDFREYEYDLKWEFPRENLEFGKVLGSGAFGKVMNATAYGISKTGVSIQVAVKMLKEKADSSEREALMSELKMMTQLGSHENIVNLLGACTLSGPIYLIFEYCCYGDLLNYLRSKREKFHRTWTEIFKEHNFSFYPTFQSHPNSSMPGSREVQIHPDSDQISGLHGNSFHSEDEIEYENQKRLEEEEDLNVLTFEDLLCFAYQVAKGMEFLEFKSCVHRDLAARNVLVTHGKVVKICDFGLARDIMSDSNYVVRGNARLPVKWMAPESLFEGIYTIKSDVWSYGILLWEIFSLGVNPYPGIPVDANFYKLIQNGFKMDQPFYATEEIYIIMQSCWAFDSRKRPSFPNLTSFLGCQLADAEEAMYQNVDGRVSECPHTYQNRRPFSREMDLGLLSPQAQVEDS
von Hippel-Lindau disease tumor suppressor/Receptor-type tyrosine-protein kinase FLT3, sequence (P40337 whole entry, looked up, stated change not applied): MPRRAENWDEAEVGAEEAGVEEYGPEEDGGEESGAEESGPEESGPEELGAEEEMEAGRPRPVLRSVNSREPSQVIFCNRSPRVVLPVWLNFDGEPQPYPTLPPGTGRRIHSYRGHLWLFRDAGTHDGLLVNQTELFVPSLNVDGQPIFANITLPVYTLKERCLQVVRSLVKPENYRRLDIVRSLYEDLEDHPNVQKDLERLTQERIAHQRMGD
Protein cereblon/Cyclin-dependent kinase 4, sequence (P11802 whole entry): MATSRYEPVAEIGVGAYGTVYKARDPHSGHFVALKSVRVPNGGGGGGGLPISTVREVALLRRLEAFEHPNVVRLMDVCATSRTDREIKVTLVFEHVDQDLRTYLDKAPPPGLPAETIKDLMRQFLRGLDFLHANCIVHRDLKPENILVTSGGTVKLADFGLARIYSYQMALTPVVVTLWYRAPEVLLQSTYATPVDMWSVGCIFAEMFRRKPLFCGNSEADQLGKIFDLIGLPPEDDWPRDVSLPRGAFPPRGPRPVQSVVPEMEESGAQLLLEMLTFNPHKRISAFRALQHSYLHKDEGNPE
Protein cereblon/Cyclin-dependent kinase 4, sequence (Q96SW2 whole entry): as the sequence (Q96SW2 whole entry) above

Take `CCc1nc(C(N)=O)c(Nc2ccc(N3CCN(CCC4CCN(CC(=O)N[C@H](C(=O)N5C[C@H](O)C[C@H]5C(=O)N[C@@H](C)c5ccc(-c6scnc6C)cc5)C(C)(C)C)CC4)CC3)c(OC)c2)nc1NC1CCOCC1`: in test [1], the half-maximal degradation concentration (DC50) came to 0.00762 µM.

As to `O=C1CCC(N2C(=O)c3ccc(N4CC(C(=O)N5CCC(NC(=O)c6n[nH]cc6NC(=O)c6c(Cl)cccc6Cl)CC5)C4)cc3C2=O)C(=O)N1` (stereo not drawn), in [2], the DC50 is above 0.1 µM. For the same compound, in test [3], the Emax is 34.2%.

Take `O=C1CCC(N2C(=O)c3ccc(N4CCC(CN5CCC(N6CCC(NC(=O)c7n[nH]cc7NC(=O)c7c(Cl)cccc7Cl)CC6)CC5)C4)cc3C2=O)C(=O)N1` (stereo not drawn): in test [2], the DC50 was above 0.1 µM. In addition, the Emax in test [3] came to 28.9%.

`O=C(NC1CCNCC1)c1n[nH]cc1NC(=O)c1c(Cl)cccc1Cl` [AT-7519] had a 50% inhibitory concentration (IC50) in the test on HL-60 [4] of 0.135 µM.

Take `CC(=O)c1c(C)c2cnc(Nc3ccc(N4CCN(Cc5cn(CCCCCC(=O)Nc6cccc7c6C(=O)N(C6CCC(=O)NC6=O)C7=O)nn5)CC4)cn3)nc2n(C2CCCC2)c1=O` (stereo not drawn): the values for the 50% degradation concentration (DC50) in test [5] and in [6] were 0.0341 µM and 0.0129 µM, respectively.

`O=C1CCC(N2C(=O)c3ccc(N4CCC(CN5CCN(Cc6ccc(NC(=O)c7n[nH]cc7Nc7ncnc8[nH]ccc78)cc6)CC5)C4)cc3C2=O)C(=O)N1` (stereo not drawn): the 50% degradation concentration (DC50) in test [2] came out at 0.00163 µM. Also, the half-maximal inhibitory concentration (IC50) with HL-60 [4] was 0.0117 µM. Moreover, in test [3], the Emax was found to be 76.1%.

As for `O=C1CCC(N2C(=O)c3ccc(N4CC(CN5CCC(N6CCC(NC(=O)c7n[nH]cc7NC(=O)c7c(Cl)cccc7Cl)CC6)CC5)C4)cc3C2=O)C(=O)N1` (stereo not drawn), the 50% degradation concentration (DC50) in [2] was above 0.1 µM. The Emax in test [3] turned out to be 43.3%.

In the case of `CN1CCN(Cc2ccc(NC(=O)c3n[nH]cc3Nc3ncnc4[nH]ccc34)cc2)CC1`, the midpoint of inhibition with HL-60 [4], the IC50, lay at 0.0893 µM.

On to `O=C1CCC(N2C(=O)c3ccc(N4CC(CN5CCC(CCN6CCC(NC(=O)c7n[nH]cc7NC(=O)c7c(Cl)cccc7Cl)CC6)CC5)C4)cc3C2=O)C(=O)N1` (stereo not drawn), for which the DC50 in test [2] is 0.0112 µM. This compound also gave an IC50 with HL-60 [4] of 0.0115 µM. Besides, the Emax in test [3] came to 65.8%.

Turning to `O=C1CCC(N2C(=O)c3ccc(N4CCC(N5CCC(NC(=O)c6n[nH]cc6NC(=O)c6c(Cl)cccc6Cl)CC5)C4)cc3C2=O)C(=O)N1` (stereo not drawn), the 50% degradation concentration (DC50) in test [2] turned out to be 0.00713 µM. The compound further displayed an IC50 in the test on HL-60 [4] of 0.014 µM. In [3], the Emax came out at 59.1%.

In the case of `O=C1CCC(N2C(=O)c3ccc(N4CCC(CN5CCC(NC(=O)c6n[nH]cc6NC(=O)c6c(Cl)cccc6Cl)CC5)CC4)cc3C2=O)C(=O)N1` (stereo not drawn), the 50% degradation concentration (DC50) in [2] amounted to 0.00117 µM. Besides, in the test on HL-60 [4], the half-inhibitory concentration (IC50) came out at 0.0446 µM. Moreover, the Emax in test [3] was 75.8%.

With `O=C1CCC(N2C(=O)c3ccc(N4CC(N5CCC(NC(=O)c6n[nH]cc6NC(=O)c6c(Cl)cccc6Cl)CC5)C4)cc3C2=O)C(=O)N1` (stereo not drawn), the 50% degradation concentration (DC50) in [2] came to 0.0261 µM. Moreover, in the test on HL-60 [4], 0.0178 µM corresponded to half-maximal inhibition (IC50). In addition, the Emax in test [3] was determined as 72.8%.

For the compound `O=C1CCC(N2C(=O)c3ccc(N4CCC(C(=O)N5CCN(Cc6ccc(NC(=O)c7n[nH]cc7Nc7ncnc8[nH]ccc78)cc6)CC5)CC4)cc3C2=O)C(=O)N1` (stereo not drawn), the DC50 in test [2] was above 0.1 µM. Further, the Emax in [3] is 47.9%.

With `O=C1CCC(N2C(=O)c3ccc(N4CC(CN5CCN(Cc6ccc(NC(=O)c7n[nH]cc7Nc7ncnc8[nH]ccc78)cc6)CC5)C4)cc3C2=O)C(=O)N1` (stereo not drawn), the 50% degradation concentration (DC50) in test [2] worked out at 0.00123 µM. This compound also returned a 50% inhibitory concentration (IC50) in the test with HL-60 [4] of 0.0134 µM. The Emax in test [3] came out at 58.8%.

In the case of `O=C1CCC(N2C(=O)c3ccc(N4CC(CN5CCC(NC(=O)c6n[nH]cc6NC(=O)c6c(Cl)cccc6Cl)CC5)C4)cc3C2=O)C(=O)N1` (stereo not drawn), in [2], the DC50 turned out to be 0.013 µM. For the same compound, the midpoint of inhibition with HL-60 [4], the IC50, lay at 0.0204 µM. Besides, the Emax in [3] is 63.2%.

As for `O=C1CCC(N2C(=O)c3ccc(N4CCC(CN5CCC(CN6CCC(NC(=O)c7n[nH]cc7NC(=O)c7c(Cl)cccc7Cl)CC6)CC5)C4)cc3C2=O)C(=O)N1` (stereo not drawn), the DC50 in [2] was above 0.1 µM.

`O=C1CCC(N2C(=O)c3ccc(N4CCC(C(=O)N5CCC(N6CCC(NC(=O)c7n[nH]cc7NC(=O)c7c(Cl)cccc7Cl)CC6)CC5)CC4)cc3C2=O)C(=O)N1` (stereo not drawn): the DC50 in test [2] was above 0.1 µM.

As for `O=C1CCC(N2C(=O)c3ccc(N4CCC(CN5CCC(NC(=O)c6n[nH]cc6NC(=O)c6c(Cl)cccc6Cl)CC5)C4)cc3C2=O)C(=O)N1` (stereo not drawn), the half-maximal degradation concentration (DC50) in test [2] worked out at 0.00471 µM. This compound registered an IC50 with HL-60 [4] of 0.0408 µM. Also, the maximal effect (Emax) in test [3] was found to be 67.3%.

As for `O=C1CCC(N2C(=O)c3ccc(N4CCC(N5CCC(NC(=O)c6n[nH]cc6NC(=O)c6c(Cl)cccc6Cl)CC5)CC4)cc3C2=O)C(=O)N1` (stereo not drawn), the 50% degradation concentration (DC50) in test [2] is 0.0028 µM. This compound had a half-maximal inhibitory concentration (IC50) with HL-60 [4] of 0.0244 µM. Further, in test [3], the Emax amounted to 79.2%.

With `O=C1CCC(N2C(=O)c3ccc(N4CCC(CCN5CCC(NC(=O)c6n[nH]cc6NC(=O)c6c(Cl)cccc6Cl)CC5)CC4)cc3C2=O)C(=O)N1` (stereo not drawn), in [2], the DC50 turned out to be 0.0265 µM. In the test on HL-60 [4], half-maximal inhibition (IC50) was put at 0.0241 µM. Further, in [3], the maximal effect (Emax) turned out to be 54.9%.

On to `O=C1CCC(N2C(=O)c3ccc(N4CCC(CN5CCC(N6CCC(NC(=O)c7n[nH]cc7NC(=O)c7c(Cl)cccc7Cl)CC6)CC5)CC4)cc3C2=O)C(=O)N1` (stereo not drawn), for which the half-maximal degradation concentration (DC50) in test [2] is above 0.1 µM.

For `O=C1CCC(N2C(=O)c3ccc(N4CC(CN5CCC(CN6CCC(NC(=O)c7n[nH]cc7NC(=O)c7c(Cl)cccc7Cl)CC6)CC5)C4)cc3C2=O)C(=O)N1` (stereo not drawn), in [2], the DC50 is above 0.1 µM. For the same compound, the Emax in test [3] was 9.07%.

Turning to `O=C1CCC(N2C(=O)c3ccc(N4CCC(CN5CCC(CCN6CCC(NC(=O)c7n[nH]cc7NC(=O)c7c(Cl)cccc7Cl)CC6)CC5)C4)cc3C2=O)C(=O)N1` (stereo not drawn), the DC50 in test [2] is above 0.1 µM. In test [3], the Emax is 38.9%.

As to `O=C1CCC(N2C(=O)c3ccc(N4CCC(CN5CCC(CCN6CCC(NC(=O)c7n[nH]cc7NC(=O)c7c(Cl)cccc7Cl)CC6)CC5)CC4)cc3C2=O)C(=O)N1` (stereo not drawn), in [2], the DC50 is above 0.1 µM. Also, in test [3], the Emax was found to be 43.5%.

For `O=C1CCC(N2C(=O)c3ccc(N4CCC(CN5CCC(CN6CCC(NC(=O)c7n[nH]cc7NC(=O)c7c(Cl)cccc7Cl)CC6)CC5)CC4)cc3C2=O)C(=O)N1` (stereo not drawn), in test [2], the DC50 was above 0.1 µM. In test [3], the Emax amounted to 31.8%.

With `Cc1ccsc1C(=O)n1nc(Nc2ccc(S(=O)(=O)NCCOCc3cn(CCOCCOCCNc4cccc5c4C(=O)N(C4CCC(=O)NC4=O)C5=O)nn3)cc2)nc1N` (stereo not drawn), the Activity is reported as 34.38% in the test on HL-60 [7] and 26.84% in the test on HL-60 [9]. The same compound returned an IC50 in the test with HL-60 [4] above 1 µM. The DC50 in test [8] was 0.061 µM.

`O=C(CCC(=O)N1CCN(Cc2ccc(NC(=O)c3n[nH]cc3Nc3ncnc4[nH]ccc34)cc2)CC1)NCCNc1cccc2c1C(=O)N(C1CCC(=O)NC1=O)C2=O` (stereo not drawn): the 50% degradation concentration (DC50) in [10] was found to be 0.062 µM; in test [11] it was 0.033 µM.

`O=C1CCC(N2C(=O)c3ccc(N4CC(C(=O)N5CCC(N6CCC(NC(=O)c7n[nH]cc7NC(=O)c7c(Cl)cccc7Cl)CC6)CC5)C4)cc3C2=O)C(=O)N1` (stereo not drawn): the DC50 in test [2] was above 0.1 µM.

Consider `O=C1CCC(N2C(=O)c3ccc(N4CCC(C(=O)N5CCC(NC(=O)c6n[nH]cc6NC(=O)c6c(Cl)cccc6Cl)CC5)CC4)cc3C2=O)C(=O)N1` (stereo not drawn), for which, in test [2], the DC50 came out at 0.0933 µM. Besides, the Emax in test [3] is 59.3%.

The values are drawn from ChEMBL document CHEMBL5579829, “Discovery of a potent CDKs/FLT3 PROTAC with enhanced differentiation and proliferation inhibition for AML” (Eur J Med Chem, 2024).
